In patent US20110086802A1, “METHODS TO INCREASE PERMEABILITY OF CORNEAL EPITHELIUM AND DESTABILIZE STROMAL COLLAGEN FIBRIL NETWORK” (priority 2008, published 2011):
Counter-ions that a name gives are not always drawn.

B1: human recombinant decorin: Human recombinant Decorin prepared from CHO-S cells, MW approximately 40,000 daltons; stabilization molecule (small leucine-rich proteoglycan) (protein, UniProt P07585 31-359, looked up)
Decorin: DEASGIGPEVPDDRDFEPSLGPVCPFRCQCHLRVVQCSDLGLDKVPKDLPPDTTLLDLQNNKITEIKDGDFKNLKNLHALILVNNKISKVSPGAFTPLVKLERLYLSKNQLKELPEKMPKTLQELRAHENEITKVRKVTFNGLNQMIVIELGTNPLKSSGIENGAFQGMKKLSYIRIADTNITSIPQGLPPSLTELHLDGNKISRVDAASLKGLNNLAKLGLSFNSISAVDNGSLANTPHLRELHLDNNKLTRVPGGLAEHKYIQVVYLHNNNISVVGSSDFCPPGHNTKKASYSGVSLFSNPVQYWEIQPSTFRCVYVRSAIQLGNYK

Assays:
[1] = system: feline cornea; assay: Corneal Hysteresis, Feline Study #1 (Reichert Ocular Response Analyzer); type: in vivo, cat; design: Corneal Hysteresis (CH): unit not given here
Experimental: Cats were placed in three treatment groups. One eye from two cats were untreated controls. All treatment solutions were administered using an applicator to localize exposure to the central corneal surface. The applicator used to apply solutions to the corneal surface was similar in design to that described in the co-pending provisional application entitled “APPARATUS TO IMPROVE LOCALIZED CONCENTRATION OF FLUIDS IN OCULAR ENVIRONMENTS” to Bruce DeWoolfson and Michael Luttrell, provisional application No. 61/064,731, filed Mar. 24, 2008, incorporated herein by reference in its entirety. Two eyes was treated with Proparacaine HCl, followed by treatment with 0.5M sodium phosphate buffer (pH 8.35), then with 3 mg of glutaric anhydride dissolved in 0.6 mL of sodium phosphate buffer, then with sodium phosphate buffer, followed by 1.5 μL of acetic anhydride diluted in 0.6 mL of sodium phosphate buffer, a second treatment with 1.5 μL of acetic anhydride in 0.6 mL of sodium phosphate buffer, a buffer rinse and finally treatment with 0.6 mL of human recombinant decorin (4.47 mg/mL).
Two eyes were treated as above but without a final treatment with decorin solution. All eyes were clinically evaluated immediately post-treatment. Three days following treatment, eyes were enucleated and the corneas removed, placed in formalin containing Cupromeronic blue.
Measurements of Corneal Hysteresis (CH) in the animals treated in Example 2. Corneal Hysteresis is a measure of the biomechanical strength of the cornea and is measured using the Reichert Ocular Response Analyzer. The Reichert Ocular Response Analyzer utilizes a dynamic bi-directional applanation process to measure the biomechanical properties of the cornea and the Intraocular Pressure of the eye. The basic output of the measurement process is a Goldmann-correlated pressure measurement (IOPG), and a new measure of corneal tissue properties called Corneal Hysteresis (CH).

[2] = system: epithelial cell junctures of human donor corneal tissue; assay: Confocal microscopy of fluorescent-tagged decorin penetration into donor cornea; type: in vitro ADME; details: for disruption of epithelial cell junctures permitting diffusion of human recombinant decorin: human donor cornea, agent applied 30 seconds to central cornea by applicator before fluorescent-tagged decorin
Text: Confocal Microscopy of glutaric anhydride treated cornea. Four donor corneas were obtained from Insight Biomed (Minneapolis, Minn.). All cornea tested negative for viral contamination. Corneas were rejected for transplantation due to storage expiration, low endothelial cell counts or other factors not related to epithelial cell integrity and stromal structure. All corneas were examined by slit-lamp microscopy for epithelial cell integrity. Corneas were stored in Optisol (Bausch & Lomb) for storage. Confocal microscopy was conducted at the Department of Surgical Research, Dartmouth-Hitchcock Medical Center, Lebanon, N.H. Two corneas were untreated controls and two were treated with glutaric anhydride followed by application of fluorescent-tagged human recombinant decorin. […] Fluorescent-tagged decorin was prepared by reacting decorin with Oregon Green 488 using a labeling kit from Molecular Probes.
All corneas were placed on a convex silicone pad and secured with pins. This allowed exposure to the corneal surface in a fixed position. All treatment solutions were administered using an applicator to localize exposure to the central corneal surface. Control cornea were treated with Proparacaine HCl for 1 minute followed by treatment with 0.5 mL of 0.2M sodium phosphate buffer (pH 8.3-8.5) for 30 seconds, 0.5 mL of saline rinse for 30 seconds, and then 0.1 mL of fluorescent-tagged human recombinant decorin. T reated cornea were treated with Proparacaine HCl for 1 minute, followed by treatment with 0.5 mL of 0.2M sodium phosphate buffer (pH 8.3-8.5) for 30 seconds, glutaric anhydride (dissolved immediately before application in sodium phosphate buffer (pH 8.3-8.5) at 5 mg/mL) for 30 seconds, saline rinsed, and then treated with 0.1 mL of fluorescent-tagged human recombinant decorin. Control and treated corneas were examined for decorin diffusion into the stroma using the Zeis confocal microscope (Model LSM 510 Meta; C apo 40×, NA=1.2, Thornwood, N.Y.).
Confocal Microscopy of acetic anhydride treated cornea. The protocol was the same as that described above for glutaric anhydride treatment. All treatment solutions were administered using an applicator to localize exposure to the central corneal surface. The applicator used to apply solutions to the corneal surface was similar in design to that described in the co-pending provisional application entitled “APPARATUS TO IMPROVE LOCALIZED CONCENTRATION OF FLUIDS IN OCULAR ENVIRONMENTS” to Bruce DeWoolfson and Michael Luttrell, provisional application No. 61/064,731, filed Mar. 24, 2008, incorporated herein by reference in its entirety. Control cornea were treated with Proparacaine HCl for 1 minute followed by treatment with 0.5 mL of 0.2M sodium phosphate buffer (pH 8.3-8.5) for 30 seconds, 0.5 mL of saline rinse for 30 seconds, and then 0.1 mL of fluorescent-tagged human recombinant decorin. Treated cornea were treated with Proparacaine HCl for 1 minute, followed by treatment with 0.5 mL of 0.3M sodium phosphate buffer (pH 8.3-8.5) for 30 seconds, acetic anhydride (3 μL) (diluted with 0.3M sodium phosphate buffer (pH 8.3-8.5) immediately before application) for 30 seconds, saline rinsed, and then treatment with 0.1 mL of fluorescent-tagged human recombinant decorin. Control and treated corneas were examined for decorin diffusion into the stroma using the Zeis confocal microscope (Model LSM 510 Meta; C apo 40×, NA=1.2, Thornwood, N.Y.).

[3] = system: feline cornea; assay: Corneal Hysteresis, Feline Study #2 (Reichert Ocular Response Analyzer); type: in vivo, cat; design: Corneal Hysteresis (CH): unit not given here
Experimental: A second study was conducted to examine the effects of acylation on “softening” or destabilizing corneal structural integrity using the Reichert Ocular Response Analyzer. Five subject animals were included in this study. One eye of each animal was treated with the contralateral eye serving as the control. For three animal subjects treatment eyes were evaluated for corneal hysteresis using the Reichert Ocular Response Analyzer before treatment and then after treatment with Proparacaine HCL, acetic anhydride diluted in sodium phosphate solution at a pH of 8.3-8.5, and decorin. For two animal subjects, no acylation agent was applied to the cornea. Instead, a 4 mm trephine was used to penetrate the corneal epithelium to provide a track for decorin penetration. Corneal hysteresis results are shown below in Table 2.

[4] = system: corneal epithelium; details: cited from earlier work
[5] = system: stromal collagen fibers; assay: Transmission electron microscopy of decorin-treated cat cornea (first study); type: in vivo; details: cat eyes exposed to 50 μg decorin for 1, 3 or 5 days, no applicator; versus control cornea
Experimental: The following study was conducted at the Department of Surgical Research, Dartmouth-Hitchcock Medical Center, Lebanon, N.H. Five adult female cats were included in the study. All animals procured from Liberty Laboratories and were identified by ear tattoo. Ocular toxicity was determined by slit-lamp examination and measurement of endothelial cell structure. Decorin penetration into the corneal stroma was determined utilizing transmission electron microscopy. Cornea treated with decorin were reacted with Quinolinic Blue Stain (Cupromeronic blue) in buffered formalin. This reagent stains small proteoglycan structures such as decorin.
Cats were placed in three treatment groups. One eye from each group was treated with decorin. Three eyes were controls. Treated eyes were exposed to 50 μg of decorin for 1 day, 3 days or 5 days. Decorin solution was administered to the corneal using a sterile transfer pipet. An applicator was not used to localize the solution to the central corneal surface. All eyes were clinically evaluated immediately post-treatment and at days 2, 3, 5, and 8. One month after final treatment, eyes were reexamined and then enucleated. Each eye was sectioned. One half was placed in Formalin for subsequent histological analysis. The other half was again divided in half, one half prepared for Transmission Electron Microscopy. […]

[6] = Animal IBT4 treated eye, after the named step of the sequence Proparacaine, GA, AA #1, AA #2, decorin, Initial 4.0
[7] = Animal QKU8 treated eye, no decorin, after the named step of the sequence, Initial 7.0
[8] = Animal QKU8 treated eye, after the named step of the sequence, Initial 6.4
[9] = Animal QNO6 treated eye, no decorin, after the named step of the sequence, Initial 6.3
[10] = Animal AHH3, after the named step of Proparacaine HCL, acetic anhydride, decorin, Initial 8.75
[11] = Animal QJD4, after the named step of Proparacaine HCL, acetic anhydride, decorin, Initial 6.9
[12] = Animal RAF6, after the named step of Proparacaine HCL, acetic anhydride, decorin, Initial 5.88

Row | Molecule | Corneal Hysteresis (CH) [1, 6] | Corneal Hysteresis (CH) [1, 7] | Corneal Hysteresis (CH) [1, 8] | Corneal Hysteresis (CH) [1, 9] | disruption of epithelial cell junctures permitting diffusion of human recombinant decorin [2] | Corneal Hysteresis (CH) [3, 10] | Corneal Hysteresis (CH) [3, 11] | Corneal Hysteresis (CH) [3, 12] | other results
1 | CCCOc1ccc(C(=O)OCCN(CC)CC)cc1N [Proparacaine, Proparacaine HCl, reference compound] | 7.0 | 7.5 | 8.0 | 7.0 |  |  |  |  | 
2 | CC(=O)OC(C)=O [acetic anhydride] | 3.2 | 5.7 | 7.0 | 5.7 | successfully disrupted the epithelial cell junctures | 5.73 | 3.9 | 4.15 | Corneal Hysteresis (CH) ([1]; Animal IBT4 treated eye, Post-AA #2 (second acetic anhydride treatment), Initial 4.0): 3.9; Corneal Hysteresis (CH) ([1]; Animal QKU8 treated eye, Post-AA #2, Initial 6.4): 6.7; Corneal Hysteresis (CH) ([1]; Animal QKU8 treated eye, Post-AA #2, Initial 7.0): 4.8; Corneal Hysteresis (CH) ([1]; Animal QNO6 treated eye, Post-AA #2, Initial 6.3): 3.8
3 | C[C@@H]1CC[C@@]2(OC1)O[C@H]1[C@@H](O)[C@H]3[C@@H]4CC[C@H]5C[C@@H](O[C@@H]6O[C@H](CO)[C@H](O[C@@H]7O[C@H](CO)[C@@H](O)[C@H](O[C@@H]8OC[C@@H](O)[C@H](O)[C@H]8O)[C@H]7O[C@@H]7O[C@H](CO)[C@H](O)[C@H](O[C@@H]8O[C@H](CO)[C@@H](O)[C@H](O)[C@H]8O)[C@H]7O)[C@H](O)[C@H]6O)[C@H](O)C[C@]5(C)[C@H]4CC[C@]3(C)[C@H]1[C@@H]2C [digitonin] |  |  |  |  |  |  |  |  | effect of pretreating cornea on drug penetration ([4]; Shih and Lee): enhance penetration of timolol; effect of pretreating cornea on epithelium layers ([4]; Shih and Lee): exfoliate the top 2 layers of epithelium
4 | O=C1CCCC(=O)O1 [glutaric anhydride] | 3.3 | 6.4 | 5.3 | 6.4 | successfully disrupted the epithelial cell junctures |  |  |  | 
5 | cetylpyridium chloride |  |  |  |  |  |  |  |  | effect on corneal epithelium ([4]; 0.02%, Godbey): disrupted the top layers of epithelial cells
6 | B1 | 4.6 |  | 7.9 |  |  | 7.3 | 6.3 | 5.18 | decorin penetration into cornea ([2]; control cornea, epithelial cell junctures not disrupted, applied directly to central cornea): limited to the epithelium; decorin penetration into cornea ([2]; cornea pretreated with acetic anhydride (3 μL) for 30 seconds): penetrated the corneal stroma; decorin penetration into cornea ([2]; cornea pretreated with glutaric anhydride 5 mg/mL for 30 seconds): penetrated the corneal stroma; Corneal Hysteresis (CH) ([3]; Animal BEA4, no acylation agent, 4 mm trephine through epithelium, Initial 3.65): 4.8; Corneal Hysteresis (CH) ([3]; Animal IRH6, no acylation agent, 4 mm trephine through epithelium, Initial 7.98): 8.03; change of CH values, in words ([3]; Feline Study #2, acylation agent treated cornea): increased CH values; change of CH values, in words ([3]; Feline Study #2, trephined but not acylation agent treated cornea): minimal increase in CH values; molecular bridges (links between fibers) between collagen fibers, TEM [5]: increase in molecular bridges; change of corneal hysteresis (CH), in words ([1]; Feline Study #1, sequential acylation then decorin): increased CH values to levels greater than initial values
